US20240082252A1, “COMPOSITIONS AND METHODS RELATING TO CANCER” (The Penn State Research Foundation, priority 2015, published 2024)

Columns and labels:
[1] = system: UACC 903 human melanoma tumors; experiment: UACC 903 melanoma xenograft, oral drug treatment; assay type: in vivo, athymic-Foxn1^nu nude mice; conditions: MK1775 50 mg/kg, AZD5363 150 mg/kg, oral daily for 18 days; vs vehicle
Method: Tumor kinetics studies were undertaken in athymic-Foxn1^nu nude mice (Harlan Laboratories, Indianapolis, IN, USA). In genetic knockdown models, siRNA targeting AKT3 and WEE1 alone or in combination was nucleofected into 1×10^6 UACC 903 or 1205 Lu cells as described above. Cells transfected with scrambled siRNA were used as a control. After plating and allowing the cells to recover for 48 hours, 1×10^6 cells were aliquoted in 0.2 ml of 10% FBS-DMEM and then injected subcutaneously above both the left and right rib cages of 4-6 week old female mice (3-4 mice/group). Dimensions of developing tumors were measured on alternate days, using calipers to estimate size by multiplying length, width and depth in mm^3. For pharmacological synergy studies, 1×10^6 UACC 903 cells were injected subcutaneously above both the left and right rib cages of 4-6 week old female mice. […] Drugs were prepared in 0.5% methylcellulose, 0.5% Tween 80, 5% DMSO and 200 uL administered per oral treatment.
At the end of the study, blood samples were collected from each mouse, serum was separated and levels of various toxicity markers were analyzed. All of the measured biomarkers in samples collected from mice were within the normal range which excludes any toxicity caused by these drugs. […]

C8161.C19 cells = experiment: cytotoxicity of pharmacological agents alone or combined (CellTiter 96), 48 hours; assay type: cell-based; conditions: for cell viability, single agents: 0.15 μM MK1775, 0.31 to 2.5 μM GDC0068, 1.25 to 10 μM AZD5363, FIG. 3E, 3G
Method: (§1) Cytotoxicity of these agents alone or in combination in melanoma cells was measured by plating 2.5 to 5×10^3 cells into 96-well plates followed by growth for 24 to 48 hours in a humidified 37° C. cell culture incubator. […] Control cells were treated with vehicle (DMSO) alone. Cytotoxicity was measured using the CellTiter 96 Aqueous Non-Radioactive Cell Proliferation Assay (Promega). The combined effects of MK1775 and GDC0068 were quantified using CalcuSyn software.

UACC 903 cells [2] = experiment: as above; assay type: cell-based; conditions: Homo sapiens, UACC-903, read-out: reduced cell viability
Method: as §1

UACC 903 cells [3] = experiment: RNA sequencing, differentially expressed genes; assay type: cell-based, human; conditions: 24 hours after treatment; intensity difference test p<0.05
Source text: Twenty-four hours following treatment with tested agents, total RNA was extracted from UACC 903 cells using mirVana RNA isolation kit (Life Technologies, Grand Island, NY). Next, using SureSelect Strand Specific RNA Library Preparation kit (Agilent) cDNA libraries were constructed, polyA RNA was purified with oligo (dT) beads and then extracted RNA was processed through fragmentation, reverse transcription, end repair, 3′-end adenylation, adaptor ligation, PCR amplification and SPRI bead purification (Beckman Coulter). For multiplexed high-throughput sequencing, the unique barcode sequences were incorporated. Libraries were then denatured using the Illumina protocol, diluted with pre-chilled hybridization buffer and loaded onto TruSeq SR v3 flow cells on an Illumina HiSeq 2500 (50 cycles, single-read). Sequencing reads were extracted by using Illumina CASAVA pipeline Version 1.8 and aligned to the human reference genome (hg38) using Tophat (version 2.0.9) as described in detail in Trapnell et al, Bioinformatics 2009; 25(9): 1105-11. SeqMonk (version 0.32.0) was used for the identification of differentially expressed genes. Following RNA-Seq quantitation, 75% percentile normalization was performed and significant alterations were determined via intensity difference test with Benjamini and Hochberg multiple testing correction (p-value <0.05). […]

[4] = serum analysis of toxicity markers at end of study; assay type: in vivo, mice; conditions: for CREA / BUN: kidney; for CREA: reference levels 0.1-0.3; for BUN: reference levels 18-33.7; for TBIL / ALB / SGPT (ALT) / ALKP: liver function; for TBIL: reference levels 0.1-0.9; for ALB: reference levels 2.5-4.8; for SGPT (ALT): reference levels 33-132, UACC 903 xenograft mice, oral daily; for ALKP: reference levels 62-209; for GLOB: no reference levels printed; for TP / CHOL / GLU: others; for TP: reference levels 3.6-6.6; for CHOL: reference levels 92-157; for GLU: reference levels 198-247; for AMYL: pancreas, reference levels 1691-3615
Method: At the end of the study, blood samples were collected from each mouse, serum was separated and levels of various toxicity markers were analyzed. All of the measured biomarkers in samples collected from mice were within the normal range which excludes any toxicity caused by these drugs. Furthermore, visceral organs such as, heart, lungs, liver, intestine, spleen and kidney from each mouse were also collected, fixed in formalin and embedded in paraffin to assess any toxicity associated abnormality in cell morphology and tissue structure following hematoxylin and eosin staining.

UACC 903 melanoma cells = experiment: Western blotting of treated cells; assay type: cell-based, human; conditions: 1, 3 or 10 μM AZD5363, FIG. 5C; for phosphorylated CDK1 levels: 1 μM MK1775
Method: Cell lysates were collected 48-96 hours after siRNA transfection or drug treatment by washing plates with PBS followed by addition of RIPA lysis buffer containing Halt Protease & Phosphatase Inhibitor Cocktail (Thermo Scientific, Rockford, IL, USA). Lysates were centrifuged (10,000×g) for 10 minutes at 4° C. to remove cell debris. Protein concentration was measured using the bicinchoninic acid assay kit (Thermo Scientific, Rockford, IL, USA). 25 μg of respective lysates were loaded onto 4-12% Bis-Tris NuPAGE gels (Life Technologies, Grand Island, NY) and run in an XCell SureLock Mini-Cell gel apparatus (Life Technologies, Grand Island, NY), transferred to polyvinylidene difluoride membranes (PVDF) (Pall Corporation, Port Washington, NY), probed with respective primary antibody followed by horseradish peroxidase-conjugated secondary antibody, and exposed using ECL Western Blotting Substrate (Thermo Scientific, Rockford, IL, USA) or Supersignal West Femto Chemiluminescent Substrate (Thermo Scientific, Rockford, IL, USA). Primary antibodies used: p21 (sc-756), p27 (sc-528), PLK1 (sc-17783), p53 (sc-6243) and ERK2 (sc-1647) from Santa Cruz Biotechnology (Dallas, TX), pAKT (S473 in AKT1, 5474 in AKT2 and 5472 in AKT3, #9271), AKT3 (#3788), Total AKT (#4685), pWEE1 (#4910), WEE1 (#4936), p-CDC2 (Y15) (#9111), p-CDC2 ([…]) (#9114), CDC2 (#9112) CHK1 (#2345), pCHK1 (#2344), pRB ([…]/811) (#9308), pRB ([…]) (#9301), pRB ([…]) (#9307), RB (#9309), FOXM1 (#5436), p-Histone H2AX (S139) (#2577) and Cleaved PARP (#9541) from Cell Signaling (Danvers, MA). Secondary antibodies goat anti-rabbit IgG-HRP (sc-2004) and goat anti-mouse IgG-HRP (sc-2005) were purchased from Santa Cruz Biotechnology, Dallas, TX.

[5] = system: 1205 Lu melanoma xenografts; experiment: 1205 Lu melanoma xenograft, oral drug treatment; assay type: in vivo, Athymic-Foxnlnu nude mice; conditions: for reduced growth of 1205 Lu xenograft / tumor development: AZD5363 150 mg/kg, MK1775 50 mg/kg, oral daily for 18 days, vs control, FIG. 4C; for reduced growth of 1205 Lu xenograft tumors: b.i.d.: AZD5363 130 mg/kg 4 days on/3 off, MK1775 30 mg/kg 3 days on/4 off, consecutive dosing in combination, 18 days, FIG. 4E
Method: 1205 Lu melanoma xenograft tumors were established by subcutaneous injection of 1×10^6 1205 Lu cells injected above both left and right rib cages of 4-6 week-old female Athymic-Foxnlnu nude mice (Harlan Sprague Dawley). Six days later, when a fully vascularized tumor had formed, mice were randomly divided into treatment groups described below. Body weight in grams and dimensions of developing tumors in mm^3 were measured on alternate days (1-6). Drugs were prepared in 0.5% methylcellulose, 0.5% Tween 80, 5% DMSO and […] administered per oral treatment.
Group 1 (vehicle control, 0.5% methylcellulose, 0.5% Tween 80, 5% DMSO) daily for 18 days;
Group 3 (MK1775, 50 mg/kg) daily for 18 days; and
Group 5 (vehicle control, 0.5% methylcellulose, 0.5% Tween 80, 5% DMSO) b.i.d. (twice a day) for 18 days;
Group 7, (MK1775, 30 mg/kg b.i.d. for 3 days on, 4 days off) for 18 days; and […]

SMILES | decrease in tumor size / tumor development [1] | cell viability, single agents (C8161.C19 cells) | relative single-agent activity (C8161.C19 cells; C8161.C19 cell line) | cytotoxicity at 0.63 µM (UACC 903 cells [2]) [%] | number of significantly deregulated genes (UACC 903 cells [3]) [genes] | CREA [4] | BUN [4] [mg/dL] | TBIL [4] [mg/dL] | ALB [4] [mg/dL] | SGPT (ALT) [4] [u/L] | ALKP [4] [u/L] | GLOB [4] [g/dL] | TP [4] [g/dL] | CHOL [4] [mg/dL] | GLU [4] [mg/dL] | AMYL [4] [U/L] | phosphorylated CDK1 levels (UACC 903 melanoma cells) | reduced growth of 1205 Lu xenograft / tumor development [5] [%] | reduced growth of 1205 Lu xenograft tumors [5] [%] | phosphorylated PRAS40 levels (UACC 903 melanoma cells)
C=CCn1c(=O)c2cnc(Nc3ccc(N4CCN(C)CC4)cc3)nc2n1-c1cccc(C(C)(C)O)n1 [MK1775, 2-allyl-1-(6-(2-hydroxypropan-2-yl)pyridin-2-yl)-6-((4-(4-methylpiperazin-1-yl)phenyl)amino)-1H-pyrazolo[3,4-d]pyrimidin-3(2H)-one] | ineffective | reduced cell viability | significantly more effective | 35 to 40 | 94 | 0.1 ± 0 mg/dL | 25.3 ± 1.9 | 0.6 ± 0 | 2.6 ± 0.1 | 55 ± 10.1 | 75 ± 5.6 | 2.6 ± 0 | 5.2 ± 0.1 | 142.5 ± 4.6 | 237.5 ± 31.4 | 2251.8 ± 50.2 | decreased phosphorylated CDK1 levels | ~50 | ~30 | 
CC(C)NC[C@@H](C(=O)N1CCN(c2ncnc3c2[C@H](C)C[C@H]3O)CC1)c1ccc(Cl)cc1 [GDC0068, ipatasertib] |  | reduced cell viability |  |  |  |  |  |  |  |  |  |  |  |  |  |  |  |  |  | 
NC1(C(=O)N[C@@H](CCO)c2ccc(Cl)cc2)CCN(c2ncnc3[nH]ccc23)CC1 [AZD5363] | 36% | reduced cell viability |  |  | 64 | 0.1 ± 0^ mg/dL | 25.8 ± 2.2 | 0.5 ± 0.1 | 2500 | 41.3 ± 7.4 | 86.3 ± 7.5 | 2.6 ± 0.1 | 5.1 ± 0.1 | 113.5 ± 7.6 | 214 ± 30.6 | 1891 ± 129.7 | reduced the phosphorylation of CDK1 in a dose-dependent manner | ~50 | ~30 | dose-dependently decreased phosphorylated PRAS40 levels
